Results from paper PMC8408276, “Distinct neuropeptide-receptor modules regulate a sex-specific behavioral response to a pheromone” (Communications Biology, 2021).
“Also recorded” adds a separate entry of the source.

Assays:
C. elegans [1] = assay: Single worm attraction assay (SWAA); assay type: in vivo
Description: We adapted the spot retention assay (Supplementary Fig. 1)[28],[38] to allow for better characterization of individual worm behavior and robust interrogation of attraction to small molecules. We first compared the attractiveness of 1 µM ascr#8 (Fig. 1a, inset) across multiple strains of C. elegans (the wild-type N2 strain, the high incidence of male him-5 and him-8 strains, and the chemosensory cilia defective osm-3), using our novel behavioral assay, the single worm attraction assay (SWAA) (Fig. 1a). In this assay, individual animals are placed directly into the spot of the ascaroside cue (A) while simultaneously removing any potential of male–male contact. A spatial control is included throughout the assay plate to allow us to investigate any innate differences in the number of visits to the well center, or the time spent therein, of which we have only found one strain to date with differences in male dwell time (Fig. 1a). Likewise, a vehicle control (V) is also included, to account of any changes in dwell time that are driven by the components of the vehicle. The outer forty wells of a 48-well suspension culture plate (Olympus Plastics, Cat #: 25-103) were seeded with 200 µL of standard NGM agar. To prepare the plates for the assay, they were acclimated to room temperature, at which point each well was seeded with 65 µL of OP50 E. coli. […] A single worm was placed in each of the 10 wells to be assayed, and the plate was transferred to a light source and camera and recorded for 15 m. […] Raw dwell time values were calculated by subtracting the time a worm exited the cue (center of the well in spatial controls), from the time it entered, as in the SRA[14]. This was determined per visit, and the average dwell time was calculated for each animal in the quadrant. Averages of the four-quadrant means were determined per plate, and a minimum of five plates were assayed per strain/condition. The mean raw dwell time across five plates was calculated and used for statistical analyses and graphical display. […] The number of visits per-worm was calculated, and the average visit count determined per quadrant, and per plate. The average visit count across five plates was calculated and used for statistical analyses and graphical display. An “attractive visit” was first determined for each plate as any visit greater than two standard deviations above the mean dwell time within the vehicle control for that plate. Any individual visit meeting this threshold was scored as a “1”, and any below was scored a “0”. The percent visits per-worm that were attractive was determined, and the average of each quadrant taken. […] The average percent of attractive visits across five plates was calculated and used for statistical analyses and graphical display. […]

C. elegans [2] = assay: Drop avoidance assay; assay type: in vivo; conditions: Fig. 2c
Description: Because the defect in male response to ascr#8 was significant, and the SWAA was designed to detect attractive behaviors, we sought to determine if flp-3 loss-of-function (lof) animals were in fact avoiding ascr#8. Using a previously described drop avoidance assay[11],[41], we exposed forward moving animals to a drop of either vehicle control or ascr#8 and scored the avoidance index. […] The hermaphroditic behavior was unaffected by the loss of flp-3. (Fig. 2f). […] Assays were performed as described previously[4],[11],[41]. Fifty to sixty L4 worms were segregated by sex and stored at 20 °C for 5 h to overnight to be assayed as young adults. One to four hours prior to the assay, the lids of unseeded plates were tilted to allow any excess moisture to evaporate off the plates. At the time of the assay, 10 or more animals were transferred onto each of the dried, unseeded plates. A drop of either water or 1 µM ascr#8 was placed on the tail of forward moving animals, and their response was scored as either an avoidance response, or no response. The total number of avoidances was divided by the total number of drops to generate an avoidance index for that plate. This was repeated for at least 10 plates over at least three different days. Statistical comparisons within each strain were made by paired t-test against a significance level set at 0.05. […]

C. elegans [3] = conditions: males no longer attracted to higher concentrations; cited from earlier work
Excerpt: Here, we investigate the neuronal mechanisms governing the behavioral attractive response of male C. elegans to ascr#8[28].

NPR-10B = target: T1, NPR-10B (Caenorhabditis elegans, UniProt Q6EUU1); assay: In vitro GPCR activation assay (CHO-K1, aequorin, Gα16), NPR-10B; assay type: cell-based, C. elegans; conditions: CHO-K1 aequorin/Gα16 calcium response
T1 sequence (Q6EUU1 1-362): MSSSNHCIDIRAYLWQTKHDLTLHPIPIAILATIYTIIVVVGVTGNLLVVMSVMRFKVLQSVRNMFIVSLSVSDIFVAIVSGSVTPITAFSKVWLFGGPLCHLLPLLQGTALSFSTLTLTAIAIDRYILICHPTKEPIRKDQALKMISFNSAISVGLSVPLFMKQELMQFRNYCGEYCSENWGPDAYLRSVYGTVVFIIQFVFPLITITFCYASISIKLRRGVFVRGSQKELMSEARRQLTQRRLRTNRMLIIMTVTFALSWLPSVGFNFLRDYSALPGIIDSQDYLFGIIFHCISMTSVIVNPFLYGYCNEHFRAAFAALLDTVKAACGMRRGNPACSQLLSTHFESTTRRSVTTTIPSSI
Description: (§1) The GPCR activation assay was performed as previously described[66],[74]. Briefly, npr-10 and frpr-16 cDNAs were cloned into the pcDNA3.1 TOPO expression vector (Thermo Fisher Scientific). A CHO-K1 cell line (PerkinElmer, ES-000-A24) stably expressing apo-aequorin targeted to the mitochondria (mtAEQ) and human Gα16 was transiently transfected with the receptor cDNA construct or the empty pcDNA3.1 vector using Lipofectamine LTX and Plus reagent (Thermo Fisher Scientific). Cells were shifted to 28 °C one day later and allowed to incubate for 24 h. On the day of the assay, cells were collected in BSA medium (DMEM/Ham’s F12 with 15 mM HEPES, without phenol red, 0.1% BSA) and loaded with […] coelenterazine h (Thermo Fisher Scientific) for 4 h at room temperature. The incubated cells were then added to synthetic peptides dissolved in DMEM/BSA, and luminescence was measured for 30 s at 496 nm using a Mithras LB940 (Berthold Technologies) or MicroBeta LumiJet luminometer (PerkinElmer). After 30 s of readout, 0.1% triton X-100 was added to lyse the cells, resulting in a maximal calcium response that was measured for 10 s. After initial screening, concentration-response curves were constructed for HPLC-purified FLP-3 peptides by subjecting the transfected cells to each peptide in a concentration range from 1 pM to 10 µM. Cells transfected with an empty vector were used as a negative control. Assays were performed in triplicate on at least two independent days. Concentration-response curves were fitted using Prism v. 7 (nonlinear regression analysis with a sigmoidal concentration-response equation).

NPR-10A = assay: In vitro GPCR activation assay (CHO-K1, aequorin, Gα16), NPR-10A; assay type: cell-based, C. elegans; conditions: CHO-K1 aequorin/Gα16 calcium response; Supplementary Fig. 10a
Description: This peptide contains an R-to-K mutation within the C-terminal motif, which may explain the lack of receptor activation.
as §1, with “After initial screening, concentration-response curves were constructed for HPLC-purified FLP-3 peptides by subjecting the transfected cells to each peptide in a concentration range from 1 pM to 10 µM. Cells transfected with an empty vector were used as a negative control. Assays were performed in triplicate on at least two independent days. Concentration-response curves were fitted using Prism v. 7 (nonlinear regression analysis with a sigmoidal concentration-response equation).” left out

FRPR-16 = target: T2, FRPR-16 (Caenorhabditis elegans, UniProt Q21957); assay: In vitro GPCR activation assay (CHO-K1, aequorin, Gα16), FRPR-16; assay type: cell-based, C. elegans; conditions: CHO-K1 aequorin/Gα16 calcium response
T2 sequence (Q21957 1-340): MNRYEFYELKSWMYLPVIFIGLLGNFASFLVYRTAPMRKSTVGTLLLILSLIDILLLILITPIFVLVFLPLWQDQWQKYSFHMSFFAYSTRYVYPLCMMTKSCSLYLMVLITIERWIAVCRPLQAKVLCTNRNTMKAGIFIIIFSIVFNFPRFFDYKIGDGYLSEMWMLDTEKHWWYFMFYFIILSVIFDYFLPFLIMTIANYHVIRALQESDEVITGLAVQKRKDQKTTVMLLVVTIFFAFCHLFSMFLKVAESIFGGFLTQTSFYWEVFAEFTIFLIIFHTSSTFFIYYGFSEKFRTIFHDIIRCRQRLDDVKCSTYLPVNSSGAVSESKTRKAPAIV
Description: as §1

[4] = system: flp-3 lof C. elegans males; assay: Peptide rescue-by-feeding, avoidance assay; assay type: in vivo; conditions: flp-3 lof males reared on bacteria expressing the peptide; 1 µM ascr#8 drop
Excerpt: To identify which FLP-3 peptides are required for male avoidance of ascr#8, we adopted a peptide feeding approach, similar to RNAi feeding, as initially described previously[37],[59] (Fig. 6a). Using Gateway Cloning technology, we first inserted FLP-3 peptide coding sequences into a bacterial expression vector. As a control, we first tested the FLP-3 peptides that are still encoded in the ok3625 allele which are insufficient to drive the proper ascr#8 response in vivo: FLP-3-1 (SPLGTMRFamide) and FLP-3-4 (NPLGTMRFamide) (Supplementary Fig. 4). We then reared flp-3 lof animals on lawns of bacteria expressing the rescue constructs, and their progeny were assayed for avoidance (Fig. 6b–d, Supplementary Fig. 12).
DNA oligos containing the sequence for the peptides of interest were generated using Integrated DNA Technologies’ Ultramer synthesis service. The DNA sequence encoding the peptide sequence was flanked with sequences encoding EGL-3 cut sites (MRFGKR upstream, and KRK-STOP) downstream. These sites were then flanked with Gateway Cloning sites attB1 and attB2. Annealed oligos were then used to perform a BP reaction with pDONR p1-p2 to generate the pENTRY clones. […]
Assays were performed as described previously[4],[11],[41]. […] A drop of either water or 1 µM ascr#8 was placed on the tail of forward moving animals, and their response was scored as either an avoidance response, or no response. […]

Molecule | Attractive visits to the cue (C. elegans [1]; 1 µM ascr#8, males of wild-type strains, Supplementary Fig. 2b) | Time spent in ascr#8 compared to the vehicle, in words (C. elegans [1]; hermaphrodites from all strains) | Time spent within ascr#8 spot compared to the vehicle control, in words (C. elegans [1]; males, all wild-type and him strains, Fig. 1b, c) | Avoidance of the cue, in words (C. elegans [2]; flp-3 lof males) | Avoidance of the cue, in words (C. elegans [2]; wild-type males) | Concentration preferred by males (behavioral tuning curve) (C. elegans [3]) [µM] | Activation of NPR-10 (NPR-10B), in words (NPR-10B) | Activation of NPR-10A, in words (NPR-10A) | Activation of FRPR-16, in words (FRPR-16) | Rescue of the ascr#8 avoidance phenotype, in words [4]
C[C@H](CC/C=C/C(=O)Nc1ccc(C(=O)O)cc1)O[C@@H]1O[C@@H](C)[C@H](O)C[C@H]1O [ascr#8] | 30–45% | significantly less time | significant increase | strongly avoided | did not avoid | ~1 |  |  |  | 
STVDSSEPVIRDQ [FLP-3-10, non-RFamide peptide encoded by the flp-3 gene] |  |  |  |  |  |  | activated no receptors; also recorded: failed to activate; also recorded: did not activate either receptor | activated no receptors | activated no receptors; also recorded: did not activate either receptor | unable to rescue the avoidance phenotype
